Experimental data as given in patent US12234299B2, “Peptides for inducing bacteriocin synthesis and methods to identify and/or select and/or optimize the same” (SYNGULON S.A., priority 2018, dated 2025).

How the values were obtained:
slvX promoter (PslvX) = test: Luciferase (luxAB) promoter activity of PslvX with synthetic peptides; type: cell-based, Streptococcus salivarius HSISS4
Protocol: (§1) Overnight precultures were diluted at a final OD600 of 0.05. A volume of 300 μl of culture samples was incubated in the wells of a sterile covered white microplate with a transparent bottom (Greiner, Alphen a/d Rijn, The Netherlands) for 75 min at 37° C. and then supplemented with synthetic peptides (1 μM, except if otherwise stated) or DMSO, and xylose where required. Growth (OD600) and luciferase (Lux) activity (expressed in relative light units) was monitored at 10 min intervals during 24 h in a multi-wells plate reader (Hidex Sense, Hidex, Turku, Finland) as previously described (Fontaine et al., 2013).

[1] = system: comX promoter (PcomX) and ComX-dependent promoters; test: Luciferase (luxAB) activity of PcomX and ComX-dependent late competence promoters; type: cell-based, Streptococcus salivarius HSISS4; settings: 1 μM; FIG. 9
Protocol: as §1

[2] = system: S. salivarius HSISS4 derivatives; test: Competence development (natural transformation frequency); type: cell-based, Streptococcus salivarius
Protocol: To induce competence, overnight CDMG precultures were diluted at a final OD600 of 0.05 in 300 μl (10 ml concerning the randomized peptide screen) of fresh CDMG and incubated 75 min at 37° C. Then, we added the pheromone sComS as well as DNA (overlapping PCRs or plasmids) and let the cells recover for 3 h at 37° C. before plating on M17G agar supplemented with antibiotics where required. Null-mutants were constructed by exchanging (double homologous recombination) the coding sequences (CDS) of target genes (sequence between start and stop codons) for either chloramphenicol or erythromycin resistance cassette. If stated, mutants were cleaned for the lox site-flanked resistance cassette, as previously described (Fontaine et al. Mol Microbiol 2010; 87:1113-1132). In case of deletion of multiple CDSs, the region between the start codon of the first CDS and the stop codon of the last CDS was deleted. Integration of the antibiotic resistance cassette at the right location was subsequently checked by PCR. The promoters of sptA genes was fused to the luxAB reporter genes and inserted with a chloramphenicol resistance cassette at the permissive tRNA threonine locus (HSISS4_r00061) by double homologous recombination. In case of ΔscuR and ΔsarF in-frame deletion, we used the two-step selection/counter-selection strategy previously described (Mignolet et al. Cell Rep 2018, 22:1627-1638). We transformed the wild-type strain with an overlapping PCR product composed of 4 fragments: (I) the upstream region of scuR or sarF genes, (II) the downstream region of scuR or sarF genes, (III) a cassette that includes the erythromycin resistance gene (erm) and a gene encoding the orotate transporter oroP, and finally (IV) the downstream region of scuR or sarF genes. We selected a first event of double recombination on medium supplemented with erythromycin. Next, we selected an intramolecular recombination between region (I) and (IV) that excises the erm-oroP cassette by growing cells on M17G supplemented with the toxic 5-fluoro-orotic acid (5-FOA) compound. In […] of oroP, 5-FOA is not able to cross the membrane and penetrate the cytoplasm where it is deleteriously incorporated in the nucleotide metabolic pathway (Overkamp et al., 2013). At final, we engineered an in-frame deletion mutant of scuR or sarF in which the first seven codons were fused to the last six codons without any cassette scar (see below for detailed cloning method).

[3] = system: S. salivarius producer strains; indicator strain Lactococcus lactis IL1403; test: Bacteriocin detection assay (spot-on lawn, multilayer); type: cell-based, Streptococcus salivarius; settings: FIG. 5B
Protocol: The spot-on lawn (multilayer) detection method was performed as followed: 10 μl of overnight cultures of producer strains were diluted in fresh M17G medium and grown to reach mid-log phase (OD600=˜0.5). In parallel, we casted plates with a bottom feeding layer (M17G 1.5% agar) supplemented with a synthetic peptide where required. Next, we mixed 100 μl of an overnight culture of Lactococcus lactis IL1403 (indicator strain) in pre-warmed soft M17G medium (0.3% agar) and casted it as a top layer. Finally, we incubated mid-log phase cultures for 30 minutes with the corresponding synthetic peptides and spotted 3 μl of the producer strains on the top layer. Plates were incubated overnight before analysis of the inhibition zones surrounding the producer colonies.

comS promoter (PcomS) = test: Luciferase (luxAB) promoter activity of PcomS with synthetic peptides; type: cell-based, Streptococcus salivarius HSISS4
Protocol: as §1

ScuR = test: Mobility shift assay (EMSA) of promoter probes with purified ScuR and synthetic peptide; type: binding, Streptococcus salivarius; settings: FIG. 4A
Protocol: All double-stranded DNA fragments (30 or 40 bp) were obtained from annealing of single-stranded Cy3-labelled (at 5′ end) and unlabeled oligonucleotides. Typically, a gel shift reaction (20 μl) was performed in a binding buffer (20 mM Tris-HCl pH 8.0, 150 mM NaCl, 1 mM EDTA, 1 mM DTT, 10% glycerol, 1 mg ml-1 BSA) and contained 150 ng labelled probe and […] StrepTag proteins. When necessary, […] of ComS peptides (unless otherwise stated) are added. The reaction is incubated at 37° C. for 10 min prior to loading of the samples on a native TBE 5% gel. The gel is next subjected to 80 V for approximately 1 h in TBE buffer. DNA complexes were detected by fluorescence on the Ettan DIGE Imager with bandpass excitation filters (nm): 540/25 (Cy3) or 635/30 (Cy5) and bandpass emission filters: 595/25 (Cy3) or 680/30 (Cy5) (GE Healthcare, Waukesha, WI).
The PCR-amplified scuR-StrepTag and gene sarF-StrepTag were cloned into the pBAD-comR-ST vector (see supplemental information). The ComR-StrepTag, ScuR-StrepTag and SarF-StrepTag recombinant proteins were overproduced in E. coli and purified as previously described (Fontaine et al., 2013) in standard native conditions on Strep-Tactin agarose beads (IBA).

[4] = system: sptA promoter (PsptA), ScuR/SarF system; test: Luciferase (luxAB) promoter activity of PsptA with exogenous synthetic peptides; type: cell-based, Streptococcus salivarius HSISS4
Protocol: as §1

[5] = WT background, dose response FIG. 3D
[6] = ΔscuR strain (SarF only), FIG. 3D

sBI7: synthetic peptide: last 8 amino acids of the clone BI7 peptide MIAILPFWLILG (sBI7)
peptide concentration to which PslvX is responsive (slvX promoter (PslvX); [5]): less than 1 nM | PslvX activity upon sBI7 induction in ΔscuR (slvX promoter (PslvX); [6]): no activity in ΔscuR | activation of comX and late competence genes under direct ComX control [1]: cannot activate | support of natural transformation ([2]; Table 6): ineffective to support natural transformation | Competence development (transformation frequency) ([2]; Wild-type strain, ratio of transformants (chloramphenicol-resistant CFU) to total CFU count per 0.1 ug of linear DNA): ND (ND: not detected (<1.0E−08)) | Competence development (transformation frequency) ([2]; ΔsarF strain, ratio of transformants to total CFU count per 0.1 ug of linear DNA): ND (ND: not detected (<1.0E−08)) | Competence development (transformation frequency) ([2]; ΔscuR strain, ratio of transformants to total CFU count per 0.1 ug of linear DNA): ND (ND: not detected (<1.0E−08)) | halo of inhibition around producer strain ([3]; WT strain, sBI7 concentration ranging from 1 nM to 1 μM, indicator L. lactis): small halo of inhibition | halo of inhibition in mutant producer strains ([3]; single ΔscuR, double ΔscuR-sarF or Δslv5 strains): eradicated | amplitude of PcomS response compared with PsptA and PslvX (comS promoter (PcomS); WT background, FIG. 3D): lowest | peptide concentration to which PcomS is responsive (comS promoter (PcomS); [5]): less than 1 nM | PcomS activity upon sBI7 induction in ΔscuR (comS promoter (PcomS); [6]): no activity in ΔscuR | ScuR·sBI7 affinity for PcomS and PslvX in comparison to sComS-bound ComR (ScuR): appears weaker with a less stable complex | peptide concentration from which ScuR shifts the PsptA probe (ScuR; ScuR 4 μM, peptide 2:2 dilutions from 20 μM): ≥ 0.08 nM | ScuR affinity for PcomS probe (ScuR; with sBI7): weakest affinity | ScuR affinity for PsptA probe (ScuR; with sBI7): strongest one | amplitude of PsptA response compared with PslvX and PcomS ([4]; WT background, FIG. 3D): highest amplitude | peptide concentration to which PsptA is responsive [4, 5]: less than 1 nM | activity of all promoters (PsptA, PslvX, PcomS) in ΔsarF compared to WT ([4]; ΔsarF strain, FIG. 3D): slightly up compared to the WT | SarF-mediated PsptA response ([4]; ΔscuR strain, FIG. 3D): able to induce the SarF-mediated PsptA response | induction of sptA, comS and slvX promoters in ΔscuR-sarF double mutant ([4]; ΔscuR-sarF, FIG. 3F): utterly erased
